How the values were obtained:
barnyard grass [1] = assay: Test Example 4: herbicidal effect by soil treatment (Table 19, symbol H); assay type: in vivo, barnyard grass (Echinochloa crus-galli); details: amount of applied herbicide 320 g/ha
Outline: (§1)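 Soil-surface application: an emulsion agent diluted with water to the predetermined dose is sprayed uniformly over seeds lying under roughly 1.5 cm of sterilized diluvial soil. Boxes stay in a greenhouse at 25° C. to 30° C. Three weeks later, each species is graded on previously defined criteria.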

lambsquarters = assay: Test Example 5: herbicidal effect by foliage application, plastic box (Table 20, symbol O); assay type: in vivo, lambsquarters (Chenopodium album); details: foliage application after 14-day growth, evaluated three weeks after application; for herbicidal effect on O: lambsquarters (evaluation grade 0-5): 320 g/ha
Outline: (§2)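 Sow seeds spot-wise in sterilized diluvial soil; cover with ~1.5 cm soil. Grow 14 days in greenhouse, 25° C. to 30° C. Spray foliage with emulsion diluted to predetermined amount. Rate effect after 3 weeks.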

chickweed = assay: Test Example 4: herbicidal effect by soil treatment (Table 19, symbol P); assay type: in vivo, common chickweed (Stellaria media); details: amount of applied herbicide 320 g/ha
Outline: as §1

persian speedwell = assay: Test Example 5: herbicidal effect by foliage application, plastic box (Table 20, symbol R); assay type: in vivo, Persian speedwell (Veronica persica); details: foliage application after 14-day growth, evaluated three weeks after application; for herbicidal effect on R: persian speedwell (evaluation grade 0-5): 320 g/ha
Outline: as §2

rice flat sedge = assay: Test Example 3: herbicidal effect by foliage application, Wagner pot (Table 18, symbol E); assay type: in vivo, rice flat sedge (Cyperus iria); details: 320 g/ha
Outline: (§3)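 Plants were sown in alluvial soil held under 0.1–0.5 cm standing water and grown 14 days in a greenhouse at 25–30 °C. An emulsifiable formulation, water-diluted to the set dose, was then sprayed onto the foliage, and effects were scored three weeks later using previously defined criteria.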

Chinese sprangletop = assay: Test Example 3: herbicidal effect by foliage application, Wagner pot (Table 18, symbol D); assay type: in vivo, chinese sprangletop (Leptochloa chinensis); details: 320 g/ha
Outline: as §3

southern crabgrass = assay: Test Example 4: herbicidal effect by soil treatment (Table 19, symbol F); assay type: in vivo, southern crabgrass (Digitaria ciliaris); details: amount of applied herbicide 320 g/ha
Outline: as §1

windgrass = assay: Test Example 4: herbicidal effect by soil treatment (Table 19, symbol L); assay type: in vivo, windgrass (Apera spica-venti); details: amount of applied herbicide 320 g/ha
Outline: as §1

redroot pigweed = assay: Test Example 5: herbicidal effect by foliage application, plastic box (Table 20, symbol N); assay type: in vivo, redroot pigweed (Amaranthus retroflexus); details: foliage application after 14-day growth, evaluated three weeks after application; for herbicidal effect on N: redroot pigweed (evaluation grade 0-5): 320 g/ha
Outline: as §2

oval-leafed pondweed = assay: Test Example 1: herbicidal activity, application before weed generation under submerged conditions (Table 16, symbol C); assay type: in vivo, oval-leafed pondweed (Monochoria vaginalis); details: amount of applied herbicide 320 g/ha
Outline: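 Submerged Wagner pots (alluvial soil, 4 cm water) sown with weed seeds and planted with 2.5-leaf rice seedlings; emulsifiable concentrate diluted in water applied to water surface on sowing day. Held in greenhouse at 25-30 °C; injury scored 0-5 by herbicidal rate after three weeks.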

barnyard grass [2] = assay: Test Example 3: herbicidal effect by foliage application, Wagner pot (Table 18, symbol H); assay type: in vivo, barnyard grass (Echinochloa crus-galli); details: 320 g/ha
Outline: as §3

late watergrass = assay: Test Example 2: herbicidal activity, application during weed generation under submerged conditions (Table 17, symbol A); assay type: in vivo, late watergrass (Echinochloa oryzicola); details: AAH 320 g/ha; application during weed generation, submerged conditions
Outline: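 Effect on each weed is rated three weeks post-treatment, using the same scoring criteria as the preceding test. Plants grow from mixed-sown seed in flooded alluvial soil (4 cm water) at 25° C. to 30° C., and are treated at one to two leaves with diluted emulsion dropped onto the water.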

[3] = amount of applied herbicide 320 g/ha

SMILES	Herbicidal effect by soil treatment, H: barnyard grass (barnyard grass [1])	herbicidal effect on O: lambsquarters (evaluation grade 0-5) (lambsquarters)	Herbicidal effect by soil treatment, P: chickweed (chickweed)	herbicidal effect on R: persian speedwell (evaluation grade 0-5) (persian speedwell)	herbicidal effect on rice flat sedge (E) (rice flat sedge)	herbicidal effect on Chinese sprangletop (D) (Chinese sprangletop)	Herbicidal effect by soil treatment, F: southern crabgrass (southern crabgrass)	Herbicidal effect by soil treatment, L: windgrass (windgrass)	herbicidal effect on N: redroot pigweed (evaluation grade 0-5) (redroot pigweed)	Herbicidal effect, C: oval-leafed pondweed (oval-leafed pondweed)	herbicidal effect on barnyard grass (H) (barnyard grass [2])	herbicidal effect rating, A: late watergrass (late watergrass)	H: barnyard grass, herbicidal effect grade (barnyard grass [1])	Herbicidal effect by foliage application, O: lambsquarters (lambsquarters; [3])	P: chickweed, herbicidal effect grade (chickweed)	Herbicidal effect by foliage application, R: persian speedwell (persian speedwell; [3])	F: southern crabgrass, herbicidal effect grade (southern crabgrass)	L: windgrass, herbicidal effect grade (windgrass)	Herbicidal effect by foliage application, N: redroot pigweed (redroot pigweed; [3])
CCCC(=O)Oc1c(C)nn(C)c(=O)c1-c1c(-c2ccc(C#N)cc2)sc2c(F)cccc12 [4-053]	0 (Herbicidal rate of 5% or less (almost no effect))	4 (Herbicidal rate of 70% or more and less than 90%)	4 (Herbicidal rate of 70% or more and less than 90%)	5 (Herbicidal rate of 90% or more (almost completely withered))	4 (Herbicidal rate of 70% or more and less than 90%)	3 (Herbicidal rate of 40% or more and less than 70%)	0 (Herbicidal rate of 5% or less (almost no effect))	0 (Herbicidal rate of 5% or less (almost no effect))	5 (Herbicidal rate of 90% or more (almost completely withered))	2 (Herbicidal rate of 20% or more and less than 40%)	4 (Herbicidal rate of 70% or more and less than 90%)	4 (Herbicidal rate of 70% or more and less than 90%)	–	–	–	–	–	–	–
COc1ccccc1-c1sc2cc(SC)ccc2c1-c1c(O)c(C)nn(C)c1=O [3-163]	5 (Herbicidal rate of 90% or more (almost completely withered))	4 (Herbicidal rate of 70% or more and less than 90%)	4 (Herbicidal rate of 70% or more and less than 90%)	5 (Herbicidal rate of 90% or more (almost completely withered))	3 (Herbicidal rate of 40% or more and less than 70%)	5 (Herbicidal rate of 90% or more (almost completely withered))	4 (Herbicidal rate of 70% or more and less than 90%)	3 (Herbicidal rate of 40% or more and less than 70%)	5 (Herbicidal rate of 90% or more (almost completely withered))	3 (Herbicidal rate of 40% or more and less than 70%)	5 (Herbicidal rate of 90% or more (almost completely withered))	3 (Herbicidal rate of 40% or more and less than 70%)	–	–	–	–	–	–	–
CCCC(=O)Oc1c(C)nn(C)c(=O)c1-c1c(-c2ccc(C#N)cc2)sc2cc(F)c(F)cc12 [5-026]	–	–	–	–	5 (Herbicidal rate of 90% or more (almost completely withered))	4 (Herbicidal rate of 70% or more and less than 90%)	–	–	–	0 (Herbicidal rate of 5% or less (almost no effect))	3 (Herbicidal rate of 40% or more and less than 70%)	2 (Herbicidal rate of 20% or more and less than 40%)	0 (Herbicidal rate of 5% or less (almost no effect))	4 (Herbicidal rate of 70% or more and less than 90%)	0 (Herbicidal rate of 5% or less (almost no effect))	4 (Herbicidal rate of 70% or more and less than 90%)	0 (Herbicidal rate of 5% or less (almost no effect))	0 (Herbicidal rate of 5% or less (almost no effect))	2 (Herbicidal rate of 20% or more and less than 40%)
